From ChEMBL document CHEMBL4673175, “An epigrammatic status of the azole-based antimalarial drugs” (RSC Med Chem, 2020)
Values after ≈ are worked out from the molar mass of the structure shown.

The compounds below were run on Plasmodium (assay: Antimalarial activity against Plasmodium).
Format: functional

IC50 [µg/mL]	SMILES
0.003 (≈ 0.00872 µM)	C/C(=N\NC(=S)Nc1ccccc1)c1nc2cc(Cl)ccc2[nH]1
0.003 (≈ 0.00727 µM)	C/C(=N\NC(=S)Nc1ccc(Cl)cc1Cl)c1nc2cc(Cl)ccc2[nH]1
0.003 (≈ 0.00968 µM)	C/C(=N\NC(=S)NC(C)C)c1nc2cc(Cl)ccc2[nH]1
0.003 (≈ 0.00926 µM)	CCCCNC(=S)N/N=C(\C)c1nc2cc(Cl)ccc2[nH]1
0.003 (≈ 0.00838 µM)	C/C(=N\NC(=S)Nc1ccc(C)cc1)c1nc2cc(Cl)ccc2[nH]1
0.003 (≈ 0.00802 µM)	COc1ccccc1NC(=S)N/N=C(\C)c1nc2cc(Cl)ccc2[nH]1
0.003 (≈ 0.00857 µM)	C/C(=N\NC(=S)NC1CCCCC1)c1nc2cc(Cl)ccc2[nH]1
0.003 (≈ 0.00829 µM)	C/C(=N\NC(=S)Nc1ccc(F)cc1)c1nc2cc(Cl)ccc2[nH]1
0.003 (≈ 0.00802 µM)	COc1ccc(NC(=S)N/N=C(\C)c2nc3cc(Cl)ccc3[nH]2)cc1
0.003 (≈ 0.00802 µM)	COc1cccc(NC(=S)N/N=C(\C)c2nc3cc(Cl)ccc3[nH]2)c1
0.003 (≈ 0.0101 µM)	CCNC(=S)N/N=C(\C)c1nc2cc(Cl)ccc2[nH]1
0.003 (≈ 0.00772 µM)	C/C(=N\NC(=S)Nc1ccc([N+](=O)[O-])cc1)c1nc2cc(Cl)ccc2[nH]1
0.003 (≈ 0.00639 µM)	C/C(=N\NC(=S)Nc1ccc(I)cc1)c1nc2cc(Cl)ccc2[nH]1
0.003 (≈ 0.00838 µM)	C/C(=N\NC(=S)NCc1ccccc1)c1nc2cc(Cl)ccc2[nH]1
0.003 (≈ 0.00926 µM)	C/C(=N\NC(=S)NC(C)(C)C)c1nc2cc(Cl)ccc2[nH]1

What follows are compounds tested on Plasmodium falciparum (assay: Antimalarial activity against chloroquine sensitive Plasmodium falciparum assessed as reduction in parasite growth incubated for 48 hrs).
Format: functional, organism-based

SMILES	IC50 [µg/mL]
Cc1cn(-c2c(C3CC(c4ccccc4)=NO3)c(C)nn2-c2ccccc2)cn1 (centres undefined)	0.012 (≈ 0.0313 µM)
Cc1nn(-c2ccccc2)c(-n2ccnc2)c1C1CC(c2ccc(F)cc2)=NN1 (centres undefined)	0.012 (≈ 0.0311 µM)
Cc1nn(-c2ccccc2)c(-n2ccnc2)c1C1CC(c2ccc(F)cc2)=NO1 (centres undefined)	0.012 (≈ 0.031 µM)
Cc1nn(-c2ccccc2)c(-n2ccnc2)c1C1CC(c2ccc(-c3ccccc3)cc2)=NN1 (centres undefined)	0.012 (≈ 0.027 µM)
Cc1cn(-c2c(C3CC(c4ccccc4)=NN3)c(C)nn2-c2ccccc2)cn1 (centres undefined)	0.012 (≈ 0.0314 µM)
Cc1nn(-c2ccccc2)c(-n2ccnc2)c1C1CC(c2ccc(Br)cc2)=NO1 (centres undefined)	0.012 (≈ 0.0268 µM)
Cc1nn(-c2ccccc2)c(-n2ccnc2)c1C1CC(c2ccccc2)=NN1 (centres undefined)	0.012 (≈ 0.0326 µM)
Cc1nn(-c2ccccc2)c(-n2cncn2)c1C1=CC(c2ccc(F)cc2)=NC2Nc3ccccc3N12 (centres undefined)	0.03 (≈ 0.0614 µM)
Cc1nn(-c2ccccc2)c(-n2ccnc2)c1C1=CC(c2ccc(O)cc2)=NC2Nc3ccccc3N12 (centres undefined)	0.03 (≈ 0.0618 µM)
Cc1nn(-c2ccccc2)c(-n2ccnc2)c1C1CC(c2ccc(O)cc2)=NN1 (centres undefined)	0.012 (≈ 0.0312 µM)
Cc1nn(-c2ccccc2)c(-n2cncn2)c1C1=CC(c2ccc(O)cc2)=NC2Nc3ccccc3N12 (centres undefined)	0.03 (≈ 0.0617 µM)
Cc1nn(-c2ccccc2)c(-n2ccnc2)c1C1=CC(c2ccc(F)cc2)=NC2Nc3ccccc3N12 (centres undefined)	0.03 (≈ 0.0615 µM)
COc1ccc(C2=NOC(c3c(C)nn(-c4ccccc4)c3-n3cnc(C)c3)C2)cc1 (centres undefined)	0.012 (≈ 0.029 µM)
Cc1nn(-c2ccccc2)c(-n2ccnc2)c1C1CC(c2ccccc2)=NO1 (centres undefined)	0.012 (≈ 0.0325 µM)
COc1ccc(C2=NC3Nc4ccccc4N3C(c3c(C)nn(-c4ccccc4)c3-n3cncn3)=C2)cc1 (centres undefined)	0.03 (≈ 0.0599 µM)
Cc1nn(-c2ccccc2)c(-n2cncn2)c1C1=CC(c2cc[nH]c2)=NC2Nc3ccccc3N12 (centres undefined)	0.03 (≈ 0.0653 µM)
Cc1nn(-c2ccccc2)c(-n2ccnc2)c1C1=CC(c2cccs2)=NC2Nc3ccccc3N12 (centres undefined)	0.03 (≈ 0.0631 µM)
Cc1nn(-c2ccccc2)c(-n2cncn2)c1C1=CC(c2cccs2)=NC2Nc3ccccc3N12 (centres undefined)	0.03 (≈ 0.0629 µM)
Cc1cn(-c2c(C3CC(c4ccc(O)cc4)=NO3)c(C)nn2-c2ccccc2)cn1 (centres undefined)	0.012 (≈ 0.03 µM)
Cc1nn(-c2ccccc2)c(-n2ccnc2)c1C1CC(c2ccc(-c3ccccc3)cc2)=NO1 (centres undefined)	0.012 (≈ 0.0269 µM)
Cc1nn(-c2ccccc2)c(-n2ccnc2)c1C1=CC(c2cc[nH]c2)=NC2Nc3ccccc3N12 (centres undefined)	0.03 (≈ 0.0654 µM)
Cc1cn(-c2c(C3CC(c4ccc(O)cc4)=NN3)c(C)nn2-c2ccccc2)cn1 (centres undefined)	0.012 (≈ 0.0301 µM)
Cc1cn(-c2c(C3CC(c4ccc(-c5ccccc5)cc4)=NN3)c(C)nn2-c2ccccc2)cn1 (centres undefined)	0.012 (≈ 0.0262 µM)
COc1ccc(C2=NNC(c3c(C)nn(-c4ccccc4)c3-n3ccnc3)C2)cc1 (centres undefined)	0.012 (≈ 0.0301 µM)
COc1ccc(C2=NNC(c3c(C)nn(-c4ccccc4)c3-n3cnc(C)c3)C2)cc1 (centres undefined)	0.012 (≈ 0.0291 µM)
COc1ccc(C2=NOC(c3c(C)nn(-c4ccccc4)c3-n3ccnc3)C2)cc1 (centres undefined)	0.012 (≈ 0.03 µM)
Cc1nn(-c2ccccc2)c(-n2cncn2)c1C1=CC(c2ccccc2)=NC2Nc3ccccc3N12 (centres undefined)	0.03 (≈ 0.0638 µM)
Cc1cn(-c2c(C3CC(c4ccc(Br)cc4)=NN3)c(C)nn2-c2ccccc2)cn1 (centres undefined)	0.012 (≈ 0.026 µM)
Cc1cn(-c2c(C3CC(c4ccc(F)cc4)=NO3)c(C)nn2-c2ccccc2)cn1 (centres undefined)	0.012 (≈ 0.0299 µM)
